Article PMC7824081, “Inhibition of DOT1L by Half-Selenopsammaplin A Analogs Suppresses Tumor Growth and EMT-Mediated Metastasis in Triple-Negative Breast Cancer” (Pharmaceuticals, 2020)

How the values were obtained:
[1] = biological target: T1, DOT1L (Homo sapiens, UniProt Q8TEK3); experiment: DOT1L enzyme activity assay (cell-free); format: biochemical; conditions: 500 ng/well DOT1L, 2 h incubation
T1 construct: purchased BPS Bioscience 52202
Method: DOT1L enzyme activity was measured using 5 μM S-adenosyl methionine (SAM) as the methyl group donor, synthesized DOT1L substrate as the substrate, and 25 ng/μL DOT1L enzymes from BPS Bioscience (Cat. No. 52202; San Diego, CA, USA) according to the manufacturer’s instructions.

[2] = tested on: MDA-MB-231 TNBC cells; experiment: SRB cell proliferation assay, MDA-MB-231; format: cell-based, human
Method: Human breast epithelial cell line (MCF10A) and human TNBC cell lines (MDA-MB-468, MDA-MB-231, Hs578T, and HCC38 cells) were provided by the American Type Culture Collection (Manassas, VA, USA). MCF10A cells were cultured in Dulbecco’s Modified Eagle’s Medium/Nutrient Mixture F-12 containing 5% donor horse serum, 100 ng/mL cholera toxin, 10 µg/mL human insulin, 20 ng/mL epidermal growth factor, 0.5 µg/mL hydrocortisone, and penicillin-streptomycin (sodium penicillin G: 100 units/mL; streptomycin: 100 μg/mL). The TNBC cells were cultured in medium [Dulbecco’s Modified Eagle’s Medium for MDA-MB-468, MDA-MB-231, and Hs578T cells; Roswell Park Memorial Institute 1640 medium for HCC38 cells] supplemented with penicillin-streptomycin and 10% fetal bovine serum at 37 °C in a humidified incubator with 5% carbon dioxide. MCF10A cells were cultured in DMEM/F12 containing 5% donor horse serum, 100 ng/mL cholera toxin, 10 µg/mL human insulin, 20 ng/mL epidermal growth factor, 0.5 µg/mL hydrocortisone and penicillin-streptomycin. All reagents used for cell culture, including culture medium, fetal bovine serum, trypsin-EDTA solution (1×), and penicillin-streptomycin solution (100×), were purchased from Gibco (Grand Island, NE, USA). Laemmli sample buffer (2×) and 2-mercaptoethanol were purchased from Bio-Rad Laboratories, Inc. (Hercules, CA, USA). EPZ-5676 was purchased from Cayman Chemical (Ann Arbor, MI, USA). Dimethyl sulfoxide (DMSO), bicinchoninic acid, copper (II) sulfate solution, bovine serum albumin (BSA), trichloroacetic acid, sulforhodamine B (SRB), and paclitaxel were purchased from Sigma–Aldrich (St. Louis, MO, USA).
Cell proliferation was evaluated using the SRB assay. Briefly, cells were seeded in 96-well plates and incubated for 30 min (for 0-day controls) or treated with test compounds for the times indicated. After incubation, the cells were fixed, dried, and stained with 0.4% (w/v) SRB in 1% (v/v) acetic acid solution. Unbound dye was removed by washing, and stained cells were dissolved in 10 mM Tris (pH 10.0). Cell proliferation was then determined by measuring the absorbance at 515 nm.

[3] = tested on: H3K79 methylation (DOT1L) in MDA-MB-231 cells; experiment: Western blotting of H3K79 methylation in MDA-MB-231 cells; format: cell-based, human; conditions: indicated concentrations, 48 h
Method: (§1) Total cell lysates were prepared in 2× sample loading buffer [250 mM Tris-HCl (pH 6.8), 10% glycerol, 4% sodium dodecyl sulfate (SDS), 2% β-mercaptoethanol, 0.006% bromophenol blue, 5 mM sodium orthovanadate, and 50 mM sodium fluoride; Bio-Rad, Hercules, CA, USA]. The protein concentrations of samples were quantified using the bicinchoninic acid (BCA) method and a BCA Protein Assay Kit (Thermo Fisher Scientific, Waltham, MA, USA). Equal amounts of protein (5–20 μg) were separated by 6–13% SDS-polyacrylamide gel electrophoresis (PAGE) and transferred to polyvinylidene fluoride membranes (Millipore, Bedford, MA, USA). The membranes were blocked with 5% bovine serum albumin (Sigma-Aldrich) and then probed with anti-DOT1L, anti-H3K79me2, anti-β-Actin, anti-histone H3, anti-H3K4me2, anti-H3K27me2, anti-H3K36me2, anti-H3K79me1, anti-H3K79me3, and anti-Vimentin antibodies purchased from Cell Signaling Technology (Beverly, MA, USA) or with anti-E-cadherin and anti-N-cadherin antibodies purchased from (BD Biosciences, San Jose, CA, USA). The blots were detected using a WEST-Queen detection system (iNtRON Biotechnology, Seongnam, Korea).

[4] = tested on: other histone H3 methylated lysine residues in MDA-MB-231 cells; experiment: Western blotting of other methylated histone H3 lysine residues in MDA-MB-231 cells; format: cell-based, human; conditions: 48 h
Method: as §1

[5] = tested on: E-cadherin, N-cadherin, vimentin in MDA-MB-231 cells; experiment: Western blotting of EMT biomarkers in MDA-MB-231 cells; format: cell-based, human; conditions: 24 h
Method: as §1

[6] = tested on: MDA-MB-231/Luc cells-implanted orthotopic mouse model; experiment: MDA-MB-231/Luc-implanted orthotopic mouse tumor model; format: in vivo; conditions: for tumor growth inhibition rate: end of experiment
Method: All animal experiments were conducted following the guidelines approved by the Seoul National University Institutional Animal Care and Use Committee (IACUC; permission number: SNU-180430-4-1). Female nude mice (BALB/c-nu), 4 weeks old, were purchased from Central Laboratory Animal, Inc. (Seoul, Korea) and housed under pathogen-free conditions with a 12 h light-dark schedule. Luciferase expressing MDA-MB-231 cells were inoculated orthotopically into the fourth fat pad of mice (1 × 10^7 cells in 100 μL of 50:50 PBS/Matrigel) using a 29-gauge needle. Two weeks after implantation, mice were randomized into vehicle control and treatment groups of six animals per group and were administered with vehicle (EtOH/Cremophor/Normal saline = 5:5:90), 9l (10 or 30 mg/kg body weight), EPZ-5676 (30 mg/kg body weight), or paclitaxel (5 mg/kg body weight, Sigma-Aldrich) as a positive reference control. Compounds were administered intraperitoneally three times per week for 38 days. An additional week later, anesthetized mice were positioned in IVIS (PerkinElmer, Waltham, MA, USA) and were imaged 15 min after injection of 150 mg/kg D-luciferin (Gold Biotechnology, St. Louis, MO, USA) resuspended in DPBS (w/o calcium or magnesium). Mice were euthanized and primary tumors and lungs were excised, weighed, and frozen for further biochemical analysis. The length (L), width (W), and height (H) of the tumors were also measured using a digital slide caliper (Mitutoyo, Kawasaki, Japan) once a week, and tumor volumes (mm^3) were estimated by the formula LWH/2. Toxicity was evaluated based on body weight loss.
A portion of the frozen tumors excised from nude mice on the termination day of the experiment was homogenized using a hand-held homogenizer in complete lysis buffer (Active Motif, Carlsbad, CA, USA). Aliquots were stored at −80 °C, and the levels of protein expression in the tumor lysates were determined. The protein concentrations in the tumor lysates were measured using the Bradford assay.

[7] = IVIS imaging, vs vehicle-treated control
[8] = western blotting of tumor lysates

T1 sequence (Q8TEK3 whole entry): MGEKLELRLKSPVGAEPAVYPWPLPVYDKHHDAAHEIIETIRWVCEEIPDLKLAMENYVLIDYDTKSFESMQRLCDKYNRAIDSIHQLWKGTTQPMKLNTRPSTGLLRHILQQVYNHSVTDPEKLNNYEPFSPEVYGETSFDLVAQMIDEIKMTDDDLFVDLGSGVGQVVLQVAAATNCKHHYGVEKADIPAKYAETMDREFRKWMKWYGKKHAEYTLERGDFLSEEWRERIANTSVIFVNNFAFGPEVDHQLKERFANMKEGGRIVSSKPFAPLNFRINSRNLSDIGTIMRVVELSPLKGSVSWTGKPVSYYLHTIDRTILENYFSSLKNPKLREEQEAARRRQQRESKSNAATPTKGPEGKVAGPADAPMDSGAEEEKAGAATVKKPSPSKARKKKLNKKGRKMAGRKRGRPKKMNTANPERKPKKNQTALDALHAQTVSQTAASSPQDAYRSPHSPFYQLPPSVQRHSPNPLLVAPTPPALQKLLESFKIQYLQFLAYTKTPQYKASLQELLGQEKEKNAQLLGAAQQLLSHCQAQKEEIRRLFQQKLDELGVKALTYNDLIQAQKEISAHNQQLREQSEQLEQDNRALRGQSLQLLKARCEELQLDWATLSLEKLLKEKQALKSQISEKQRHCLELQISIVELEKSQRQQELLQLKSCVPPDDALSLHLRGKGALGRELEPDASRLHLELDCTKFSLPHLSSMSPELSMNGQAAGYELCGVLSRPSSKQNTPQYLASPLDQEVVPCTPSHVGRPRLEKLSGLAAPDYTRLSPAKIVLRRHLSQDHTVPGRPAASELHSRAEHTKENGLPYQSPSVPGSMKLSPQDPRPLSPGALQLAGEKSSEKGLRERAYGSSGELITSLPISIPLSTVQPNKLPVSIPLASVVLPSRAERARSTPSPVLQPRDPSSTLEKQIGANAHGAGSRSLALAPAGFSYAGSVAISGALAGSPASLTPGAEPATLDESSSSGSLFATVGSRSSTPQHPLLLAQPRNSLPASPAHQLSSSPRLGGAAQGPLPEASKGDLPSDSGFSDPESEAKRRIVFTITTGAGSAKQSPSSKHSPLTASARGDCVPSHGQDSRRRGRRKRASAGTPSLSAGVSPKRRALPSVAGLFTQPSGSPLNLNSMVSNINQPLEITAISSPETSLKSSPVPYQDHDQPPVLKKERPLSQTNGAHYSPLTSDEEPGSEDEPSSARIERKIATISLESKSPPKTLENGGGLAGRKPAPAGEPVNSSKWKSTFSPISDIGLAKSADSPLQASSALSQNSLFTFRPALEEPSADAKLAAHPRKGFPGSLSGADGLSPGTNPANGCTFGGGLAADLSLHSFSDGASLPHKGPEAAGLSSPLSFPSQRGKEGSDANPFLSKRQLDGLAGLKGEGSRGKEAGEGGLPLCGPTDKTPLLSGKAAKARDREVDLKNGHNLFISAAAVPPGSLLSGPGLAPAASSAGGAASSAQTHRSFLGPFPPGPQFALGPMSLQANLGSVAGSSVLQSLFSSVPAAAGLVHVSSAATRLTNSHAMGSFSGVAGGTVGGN

**Q.** With `CC(C)(C)c1ccc(C/C(=N\O)C(=O)NCC[Se]Sc2ccccc2)cc1` [9l, (E)-3-(4-(tert-Butyl)phenyl)-2-(hydroxyimino)-N-(2-((phenylthio)selanyl)ethyl)propanamide] as the compound, how does the IC50 [1] read?
**A.** The IC50 was 363 nM.

**Q.** What about the IC50 ([2]; Homo sapiens, MDA-MB-231, 72 h, SRB assay) of the same compound?
**A.** The IC50 was 160 nM.

**Q.** And the “Therapeutic Index” value ([2]; ratio of IC50 values between MCF10A and MDA-MB-231 cells)?
**A.** The value was 161.63.

**Q.** And the H3K79 methylations [3]?
**A.** Its H3K79 methylations is “effectively suppressed H3K79 methylations in a concentration-dependent manner”.

**Q.** And the “other histone H3 methylated lysine residues” value [4]?
**A.** Its value is “not affected”.

**Q.** What about the E-cadherin protein expression [5] of the same compound?
**A.** Its E-cadherin protein expression is “upregulation”.

**Q.** And the N-cadherin protein expression [5]?
**A.** The N-cadherin protein expression was “downregulation”.

**Q.** What about the vimentin protein expression [5] of the same compound?
**A.** The vimentin protein expression was “downregulation”.

**Q.** And the “tumor growth inhibition rate” value ([6]; 10 mg/kg i.p., three times per week for 38 days)?
**A.** The value was 44.0%.

**Q.** And the “tumor growth inhibition rate” value ([6]; 30 mg/kg i.p., three times per week for 38 days)?
**A.** The value was 55.8%.

**Q.** And the “toxicity / body weight change” value ([6]; 10 or 30 mg/kg i.p., three times per week for 38 days)?
**A.** Its value is “No overt toxicity or changes in body weight”.

**Q.** And the “luminescence signal intensity from the primary tumor sites” value [6, 7]?
**A.** The value was “decreased”.

**Q.** What about the “luminescence signal intensity in excised lung tissues (lung metastasis)” value [6, 7] of the same compound?
**A.** Its value is “efficiently suppressed”.

**Q.** And the “E-cadherin level in excised tumors” value [6, 8]?
**A.** The value was “upregulated”.

**Q.** And the “H3K79me2 protein level in excised tumors” value [6, 8]?
**A.** The value was “downregulated”.

**Q.** And the “Ki-67 expression in tumor tissues” value [6, 8]?
**A.** Its value is “significantly suppressed”.

**Q.** What about the “N-cadherin protein level in excised tumors” value [6, 8] of the same compound?
**A.** The value was “downregulated”.

**Q.** And the “vimentin protein level in excised tumors” value [6, 8]?
**A.** The value was “downregulated”.
